The test system of assay [1] is Radical scavenging activity. As to the kind of experiment: Antioxidant activity of the compound assessed as DPPH radical scavenging activity after 30 mins. The format is functional. (The DPPH test is a chemical assay of radical scavenging.)
Assay [2] can be described thus: Antioxidant activity assessed as ABTS radical scavenging activity. The format is functional.
The subject of assay [3] is H9c2. Briefly: Cytoprotective activity against doxorubicin-induced cytotoxicity in rat H9c2 cells assessed as cell viability after 24 hrs by MTT assay. It is filed as functional, cell-based. Background: Tetrazolium dyes change colour on reduction, which living cells bring about.
A short description of assay [4]: Antioxidant activity assessed as ferrous ion chelating activity. It is filed as functional.
Assay [5] relates to H9c2. As to the kind of experiment: Cytoprotective activity against in rat H9c2 cells assessed as inhibition of doxorubicin-induced cell death after 24 hrs by MTT assay. The format is functional, cell-based.
For assay [6], the system named is H9c2. As to the kind of experiment: Cytoprotective activity against rat H9c2 cells assessed as reduction in doxorubicin-induced CK release at 5 to 20 uM after 24 hrs. The format is functional, cell-based.
Assay [7] concerns H9c2. As to the kind of experiment: Cytoprotective activity against rat H9c2 cells assessed as reduction in doxorubicin-induced LDH release at 5 to 20 uM after 24 hrs. It is filed as functional, cell-based. Background: LDH in the medium is a marker of cell lysis.
For assay [8], the system named is H9c2. As to the kind of experiment: Cytoprotective activity against rat H9c2 cells assessed as inhibition of doxorubicin-induced morphological changes at 10 to 40 uM after 24 hrs. The format is functional, cell-based.
The test system of assay [9] is H9c2. As to the kind of experiment: Cytoprotective activity against rat H9c2 cells assessed as inhibition of doxorubicin-induced intracellular ROS elevation at 5 to 20 uM after 24 hrs. It is filed as functional, cell-based.
The subject of assay [10] is H9c2. As to the kind of experiment: Cytoprotective activity against rat H9c2 cells assessed as inhibition of doxorubicin-induced intracellular Ca2+ elevation. It is filed as functional, cell-based.
In assay [11] the test system is H9c2. As to the kind of experiment: Effect on doxorubicin-induced total apoptosis in rat H9c2 cells at 20 uM. The format is functional, cell-based.
[12] abbreviates: Rattus norvegicus, H9c2, 24 h, read-out: EC50.

The source made the active and inactive calls. No cut-off for these calls is given here.

As to `COc1ccc(-c2cc(=O)c3c(O)cc(O[C@@H]4O[C@H](CO)[C@@H](O)[C@H](O)[C@H]4O)cc3o2)cc1` [TILIANINE], the EC50 in assay [1] is 95 µM; in [2] it was 400 µM; with H9c2 [3] (h9c2), “Not Active”.
For the compound `O=c1cc(-c2ccc(O)c(O)c2)oc2cc(O)cc(O)c12` [LUTEOLIN], the EC50 in assay [1] is 6.12 µM; in [4] it was 12000 µM; in [2], 105 µM; in the assay on H9c2 [3] (setting [12]), 5.53 µM.
In the same order, the values of `COc1cc2oc(-c3ccc(O)c(O[C@@H]4O[C@H](CO)[C@@H](O)[C@H](O)[C@H]4O)c3)cc(=O)c2c(O)c1O` are 31 µM, 60 µM, 15.7 µM and 13.1 µM.
On to `O=C1C[C@@H](c2ccc(O)cc2)Oc2cc(O[C@@H]3O[C@H](CO)[C@@H](O)[C@H](O)[C@H]3O)cc(O)c21` [PRUNIN], for which the EC50 in assay [1] is 40.6 µM; in assay [2], 18.1 µM; in the assay on H9c2 [3] (h9c2), “Not Active”.
As to `O=C1C[C@@H](c2ccc(O)c(O)c2)Oc2cc(O[C@@H]3O[C@H](CO)[C@@H](O)[C@H](O)[C@H]3O)cc(O)c21`, the EC50 in assay [1] came out at 15.6 µM; in [4] it was 213000 µM; in assay [2] it was 7.26 µM; with H9c2 [3] (setting [12]), 38.2 µM.
In the case of `O=c1cc(-c2ccc(O)c(O)c2)oc2cc(O[C@@H]3O[C@H](CO)[C@@H](O)[C@H](O)[C@H]3O)cc(O)c12` [GALUTEOLIN], the EC50 is 3.94 µM in assay [1], 1100 µM in assay [4], 56.5 µM in assay [2] and 5.04 µM in the assay with H9c2 [3] (setting [12]). The result in the assay with H9c2 [5] and in the assay with H9c2 [11] was inactive. For the same compound, the result in the assay with H9c2 [6], with H9c2 [7], in the assay with H9c2 [8] and in the assay with H9c2 [9] was Active. Moreover, the Activity entry in the assay on H9c2 [10] is “Dose-dependent effect”.
As to `COc1cc2oc(-c3ccc(O)c(O)c3)cc(=O)c2c(O)c1O[C@@H]1O[C@H](COC(C)=O)[C@@H](O)[C@H](O)[C@H]1O`, the EC50 came to 95.2 µM in assay [1], 1130 µM in assay [4], 76.2 µM in [2] and 19.1 µM with H9c2 [3] (setting [12]).
As to `O=c1cc(-c2ccc(O)cc2)oc2cc(O[C@@H]3O[C@H](CO)[C@@H](O)[C@H](O)[C@H]3O)cc(O)c12` [APIGETRIN], the results for the EC50 (in assay [1]; in assay [2]; in the assay on H9c2 [3] (setting [12])) were 20.4 µM, 13.1 µM and 12.3 µM, respectively.
Consider `COc1cc2oc(-c3ccc(O)cc3)cc(=O)c2c(O)c1O`, for which the concentration giving a half-maximal response (EC50) in assay [1] is 20 µM; in assay [2] it was 13.4 µM; in the assay on H9c2 [3] (h9c2), “Not Active”.
The matching figures for `COc1cc2oc(-c3ccc(O)cc3)cc(=O)c2c(O)c1O[C@@H]1O[C@H](CO)[C@@H](O)[C@H](O)[C@H]1O`: 159 µM, 581 µM and “Not Active”.
`COc1cc2oc(-c3ccc(O)cc3)cc(=O)c2c(O)c1O[C@@H]1O[C@H](COC(C)=O)[C@@H](O)[C@H](O)[C@H]1O`: the EC50 is 113 µM in [1], 4510 µM in assay [4], 12.3 µM in [2] and “Not Active” with H9c2 [3] (h9c2).
In the same order, the values of `O=C1C[C@@H](c2cc(O)cc(O)c2)Oc2cc(O)cc(O)c21` are 32.1 µM, 161000 µM, 16.3 µM and “Not Active”.
Take `COc1cc2oc(-c3ccc(O)c(O)c3)cc(=O)c2c(O)c1O[C@@H]1O[C@H](CO)[C@@H](O)[C@H](O)[C@H]1O`: the EC50 is 81.2 µM in assay [1], 27600 µM in assay [4], 86.1 µM in assay [2] and “Not Active” in the assay with H9c2 [3] (h9c2).
On to `CCOC(=O)[C@H]1O[C@@H](Oc2cc(O)c3c(=O)cc(-c4ccc(O)c(O)c4)oc3c2)[C@H](O)[C@@H](O)[C@@H]1O`, for which the EC50 in assay [1] stood at 13.2 µM; in assay [4], 3310 µM; in assay [2], 87.8 µM; in the assay with H9c2 [3] (setting [12]) it was 6.34 µM.
In the case of `O=C1C[C@@H](c2ccc(O)cc2)Oc2cc(O)cc(O)c21` [NARINGENIN], the EC50 in assay [1] was 72.3 µM; in assay [4], 21400 µM; in assay [2], 13.5 µM; in the assay with H9c2 [3] (h9c2), “Not Active”.
As to `O=C1C[C@@H](c2ccc(O)c(O)c2)Oc2cc(O)cc(O)c21` [ERIODICTYOL], the EC50 in assay [1] came out at 98.8 µM; in assay [4], 8370 µM; in [2] it was 1.15 µM; in the assay with H9c2 [3] (setting [12]) it was 25.5 µM.

Usually EC50 stands for the concentration needed to bring the measured effect to its halfway point.

The record behind these values is ChEMBL document CHEMBL1268973, “Flavonoids from Dracocephalum tanguticum and their cardioprotective effects against doxorubicin-induced toxicity in H9c2 cells” (Bioorg Med Chem Lett, 2010).
